Here are results for 5 molecules from patent US20260083865A1, “PROSTATE SPECIFIC MEMBRANE ANTIGEN (PSMA) LIGANDS AND USE THEREOF” (priority 2022, published 2026).

The target in experiment [1] is T1, Fc-fusion protein of human PSMA (hPSMA-Fc) (Homo sapiens, UniProt Q04609).
T1 construct: purchased Acro Biosystems PSA-H5264
Briefly: Surface plasmon resonance assay (Biacore T200, single cycle kinetic). Type of experiment: binding. As to conditions: hPSMA-Fc, 25° C., read-out: pKD CAT (converted). How it is done: Surface plasmon resonance (SPR) studies were performed using a Biacore™ T200 SPR system. Briefly, polarized light is directed towards a gold-labeled sensor surface, and minimum intensity reflected light is detected. The angle of reflected light changes as molecules bind and dissociate.
Fc-fusion protein of human PSMA (hPSMA-Fc, Acro Biosystems, Cat #PSA-H5264) was captured on a Fc-capture chip (Biacore™ CM5 sensor chip coated with ˜300 RU of an Fc-binding peptide). hPSMA-Fc was diluted in Running Buffer (HBST, 0.1% DMSO) to a final concentration of 100 nM and then flushed over the Fc-capture chip to immobilized ˜1000 RUs.
Stock solutions of test compounds were prepared by dissolving each compound in DMSO. DMSO stock solution were diluted 1:1000 in Running Buffer without DMSO. Further sequential dilutions were made with Running Buffer containing 0.1% DMSO. SPR binding analyses were performed in Single Cycle Kinetic (SCK) mode at 25° C. Flow cell coated with the Fc-binding peptide only served as reference flowcell. After each SCK run, hPSMA-Fc was removed with 10 mM glycine buffer, pH 1.5.
In between every three SCK measurements, a blank run with Running Buffer instead of test compound was included to correct for baseline drifts (double blanking method).
Table 5 describes the protocol steps for Fc-fusion target capturing and assessment of the binding kinetics.
For each test compound, SPR raw data in the form of resonance units (RU) were plotted as sensorgrams using the Biacore™ T200 control software. The signal from the blank sensorgram was subtracted from that of the test compound sensorgram (blank corrected). The blank corrected sensorgram was corrected for baseline drift by subtracting the sensorgram of a SCK run without the test compound (running buffer only). The dissociation constant (KD) was calculated from Blank-normalized SPR data using the 1:1 Langmuir binding model from the Biacore™ Insight Evaluation software. The pKD value (negative decadic logarithm of dissociation constant) was calculated using Microsoft Excel.
A general note: SPR reads the build-up and loss of mass on a sensor chip optically.

Experiment [2] deals with T2, PSMA-expressing C4-2 cells (Homo sapiens, UniProt Q04609).
T2 construct: PSMA-expressing C4-2 cells (ATCC, Cat. No. CRL-3314) were cultured in RPMI-1640; host or cells: C4-2 cells
Briefly: FACS binding assay (competition with 50 nM PSM-0183). The following applies: C4-2 cells, read-out: pIC50 [C4-2] CAT (converted). How it is done:
In order to determine binding of compounds according to the present invention to PSMA-expressing cells, a FACS binding assay was established.
PSMA-expressing C4-2 cells (ATCC, Cat. No. CRL-3314) were cultured in RPMI-1640 (Pan Biotech, Cat. No. P04-18050) including 10% fetal calf serum (Biochrom) and 100 U/ml penicillin and 100 μg/mL streptomycin (Sigma, Cat. No. P0781). Cells were detached with Accutase (Biolegend, Cat. No. BLD-423201) and washed in FACS buffer (PBS (Sigma, Cat. No. D8537) including 1% fetal calf serum). Cells were diluted in FACS buffer to a final concentration of 500,000 cells per mL. 200 μL of the cell suspension were transferred to a u-shaped non-binding 96-well plate (Greiner Bio-One, Cat. No. 650901) and cells were washed in ice-cold FACS buffer.
For IC50 determination, C4-2 cells were incubated with 50 nM PSM-0183 (Ac-Thr-Aib-Phe[Cys-Lys-Arg-Aib-Asn-Cys]-Tle-Thr-Asp-Ttds-Ttds-AF488N3K-NH2) in the presence of increasing concentrations of test compounds at 4° C. for 1 hour. After two wash steps with ice-cold FACS buffer, cells were analyzed in an Attune NxT flow cytometer. Median fluorescence intensities (MFI) of the FITC/AF488-channel were calculated by Attune NxT software. MFI values were plotted against peptide concentration and four parameter logistic (4PL) curve fitting and IC50/pIC50 calculations were performed using ActivityBase software (IDBS).
(A flow cytometer gives signals particle by particle.)

Read-outs that look alike come from different tables or passages of the source. Numbered stars: 1 amine (or outer) side, 2 acyl side, 3 side chain; on linkers, the order of the positions; unused ones are H or OH. Bridge positions count the residues as written; N and C are the ends. Square brackets hold non-standard residues; d marks the D form. Peptide text beside a SMILES is read from it. * marks the point of attachment. X17 = N=c1ccc2c(-c3ccc(C(=O)NCCC(=O)N4Cc5ccccc5-c5c(nnn5CCCCCC(=O)NCCCOCCOCCOCCCNC(=O)CCC(=O)NCCCOCCOCCOCCCN*)-c5ccccc54)cc3C(=O)O)c3ccc(N)c(S(=O)(=O)O)c3oc-2c1S(=O)(=O)O; X3 = O=C(O)CN1CCN(CC(=O)O)CCN(CC(=O)NCCCOCCOCCOCCCN*)CCN(CC(=O)O)CC1; X18 = O=C(O)c1cccc(CN2CCOCCOCCN(Cc3cc(N*)cc(C(=O)O)n3)CCOCCOCC2)n1; DOTA = O=C(O)CN1CCN(CC(=O)O)CCN(CC(=O)*)CCN(CC(=O)O)CC1; X20 = CN(CCC[C@H](N[*:1])C(=O)[*:2])C(=N)N; Phe(4-Cl) = N[C@@H](Cc1ccc(Cl)cc1)C(=O)O; Arg(Me) = CNC(=N)NCCC[C@H](N)C(=O)O; Glutaryl = O=C(CCCC(=O)[*:2])[*:1]; X1 = O=C(CC1CCN([*:1])CC1)[*:2]; Cit = NC(=O)NCCC[C@H](N)C(=O)O; Lys(Me) = CNCCCC[C@H](N)C(=O)O; Suc = O=C(CCC(=O)[*:2])[*:1]; Tle = CC(C)(C)[C@H](N)C(=O)O; Aib = CC(C)(N)C(=O)O

T2 sequence (Q04609 whole entry): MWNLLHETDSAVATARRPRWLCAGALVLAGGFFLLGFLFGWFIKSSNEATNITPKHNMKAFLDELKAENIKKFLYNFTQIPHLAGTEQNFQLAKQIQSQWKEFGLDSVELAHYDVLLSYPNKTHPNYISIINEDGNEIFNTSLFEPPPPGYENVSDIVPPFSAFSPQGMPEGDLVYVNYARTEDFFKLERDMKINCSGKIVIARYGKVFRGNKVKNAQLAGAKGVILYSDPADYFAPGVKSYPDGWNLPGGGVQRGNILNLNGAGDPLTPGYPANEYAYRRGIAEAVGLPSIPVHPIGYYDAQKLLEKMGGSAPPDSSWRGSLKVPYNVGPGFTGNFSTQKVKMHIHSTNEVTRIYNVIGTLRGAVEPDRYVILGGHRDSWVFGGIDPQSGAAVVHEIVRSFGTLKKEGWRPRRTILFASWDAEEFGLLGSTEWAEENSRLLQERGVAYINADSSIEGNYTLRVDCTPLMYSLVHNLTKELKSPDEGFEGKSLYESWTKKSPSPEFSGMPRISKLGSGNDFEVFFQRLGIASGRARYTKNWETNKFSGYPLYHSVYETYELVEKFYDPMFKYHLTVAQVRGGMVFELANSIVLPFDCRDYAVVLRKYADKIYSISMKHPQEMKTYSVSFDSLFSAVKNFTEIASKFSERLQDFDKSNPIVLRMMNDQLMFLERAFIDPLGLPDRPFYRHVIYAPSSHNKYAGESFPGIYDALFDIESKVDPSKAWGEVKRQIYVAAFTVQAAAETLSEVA
T1 sequence (Q04609 44-750 limits assumed): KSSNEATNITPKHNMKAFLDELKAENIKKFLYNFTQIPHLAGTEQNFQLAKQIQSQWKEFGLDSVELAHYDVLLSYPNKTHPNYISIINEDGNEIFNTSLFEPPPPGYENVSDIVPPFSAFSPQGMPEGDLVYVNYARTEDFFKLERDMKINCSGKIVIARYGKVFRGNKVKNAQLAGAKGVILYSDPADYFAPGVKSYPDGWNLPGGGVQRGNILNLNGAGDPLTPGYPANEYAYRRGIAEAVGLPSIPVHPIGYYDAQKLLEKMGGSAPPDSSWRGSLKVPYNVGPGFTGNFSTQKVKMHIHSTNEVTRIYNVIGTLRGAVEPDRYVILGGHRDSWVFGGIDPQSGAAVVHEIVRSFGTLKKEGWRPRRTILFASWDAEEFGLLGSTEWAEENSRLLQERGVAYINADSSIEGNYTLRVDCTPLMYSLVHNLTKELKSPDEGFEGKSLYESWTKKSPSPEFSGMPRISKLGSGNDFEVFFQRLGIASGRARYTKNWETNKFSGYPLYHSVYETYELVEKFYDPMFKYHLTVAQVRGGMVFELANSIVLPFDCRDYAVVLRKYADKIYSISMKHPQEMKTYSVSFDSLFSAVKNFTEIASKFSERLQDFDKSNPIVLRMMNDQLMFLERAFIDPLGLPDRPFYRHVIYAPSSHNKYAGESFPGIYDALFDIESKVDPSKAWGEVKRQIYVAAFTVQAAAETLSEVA

On to `CSCC[C@@H]1NC(=O)C(C)(C)NC(=O)[C@H](CCCNC(N)=O)NC(=O)[C@H](CCCCN)NC(=O)[C@@H](NC(=O)[C@H](Cc2ccc(Cl)cc2)NC(=O)C(C)(C)NC(=O)[C@@H](NC(C)=O)[C@@H](C)O)CSSC[C@@H](C(=O)N[C@H](C(=O)N[C@H](C(N)=O)[C@@H](C)O)C(C)(C)C)NC1=O` [PSM-0229, Ac-Thr-Aib-Pcf-[Cys-Lys-Arg-Aib-Met-Cys]-Tle-Thr-NH2] (Ac-T[Aib][Phe(4-Cl)]CK[Cit][Aib]MC[Tle]T-NH2; disulfide 4-9), for which, in experiment [1] (SPR, single cycle kinetic, category), the Kd was under 12.6 nM.

Regarding `CC(C)C[C@H](NC(=O)[C@@H]1CSSC[C@H](NC(=O)[C@H](Cc2ccccc2)NC(=O)[C@H](C)NC(=O)[C@@H](NC(=O)CCC(=O)NCCCOCCOCCOCCCNC(=O)CN2CCN(CC(=O)O)CCN(CC(=O)O)CCN(CC(=O)O)CC2)[C@@H](C)O)C(=O)N[C@@H](CCCCN)C(=O)N[C@@H](CCCNC(=N)N)C(=O)N[C@@H](C)C(=O)N[C@@H](CC(N)=O)C(=O)N1)C(=O)N[C@H](C(=O)N[C@@H](CC(=O)O)C(N)=O)[C@@H](C)O` [PSM-0251, DOTA-Ttds-Thr-Ala-Phe-[Cys-Lys-Arg-Ala-Asn-Cys]-Leu-Thr-Asp-NH2] ({X3-Suc}-TAFCKRANCLTD-NH2; disulfide 4-9), the IC50 in experiment [2] (FACS binding, competition with 50 nM PSM-0183, category) was 200 to 1260 nM.

`C[C@@H](O)[C@H](NC(=O)CCC(=O)NCCCOCCOCCOCCCNC(=O)CCC(=O)NCCCOCCOCCOCCCNC(=O)CCCCCn1nnc2c1-c1ccccc1CN(C(=O)CCNC(=O)c1ccc(-c3c4ccc(=N)c(S(=O)(=O)O)c-4oc4c(S(=O)(=O)O)c(N)ccc34)c(C(=O)O)c1)c1ccccc1-2)C(=O)NC(C)(C)C(=O)N[C@@H](Cc1ccccc1)C(=O)N[C@H]1CSSC[C@@H](C(=O)N[C@H](C(=O)N[C@H](C(=O)N[C@@H](CC(=O)O)C(N)=O)[C@@H](C)O)C(C)(C)C)NC(=O)[C@H](CC(N)=O)NC(=O)C(C)(C)NC(=O)[C@H](CCCNC(=N)N)NC(=O)[C@H](CCCCN)NC1=O` [PSM-0272, AF488Ahx-Ttds-Ttds-Thr-Aib-Phe-[Cys-Lys-Arg-Aib-Asn-Cys]-Tle-Thr-Asp-NH2] ({X17-Suc}-T[Aib]FCKR[Aib]NC[Tle]TD-NH2; disulfide 4-9): the Kd in experiment [1] (PSMA SPR assay, pKD category) was under 12.6 nM.

Regarding `CNCCCC[C@@H]1NC(=O)[C@@H](NC(=O)[C@H](Cc2ccc(Cl)cc2)NC(=O)C(C)(C)NC(=O)[C@@H](NC(=O)CC2CCN(C(=O)CCCC(=O)Nc3cc(CN4CCOCCOCCN(Cc5cccc(C(=O)O)n5)CCOCCOCC4)nc(C(=O)O)c3)CC2)[C@@H](C)O)CSSC[C@@H](C(=O)N[C@H](C(=O)N[C@H](C(N)=O)[C@@H](C)O)C(C)(C)C)NC(=O)[C@H](CC(N)=O)NC(=O)C(C)(C)NC(=O)[C@H](CCCNC(=N)NC)NC1=O` [PSM-0515, Macropa-Cmp-Thr-Aib-Pcf-[Cys-Lys(Me)-Arg(Me)-Aib-Asn-Cys]-Tle-Thr-NH2] ({X18-Glutaryl}-[X1]T[Aib][Phe(4-Cl)]C[Lys(Me)][Arg(Me)][Aib]NC[Tle]T-NH2; disulfide 5-10), in experiment [2] (pIC50 category of FACS binding), the IC50 is under 200 nM.

`CNCCCC[C@@H]1NC(=O)[C@@H](NC(=O)[C@H](Cc2ccc(Cl)cc2)NC(=O)C(C)(C)NC(=O)[C@@H](NC(=O)CC2CCN(C(=O)CN3CCN(CC(=O)O)CCN(CC(=O)O)CCN(CC(=O)O)CC3)CC2)[C@@H](C)O)CSSC[C@@H](C(=O)N[C@H](C(=O)N[C@H](C(N)=O)[C@@H](C)O)C(C)(C)C)NC(=O)[C@H](CC(N)=O)NC(=O)C(C)(C)NC(=O)[C@H](CCCN(C)C(=N)N)NC1=O` [PSM-0592, DOTA-Cmp-Thr-Aib-Pcf-[Cys-Lys(Me)-RMe1-Aib-Asn-Cys]-Tle-Thr-NH2] ({DOTA}-[X1]T[Aib][Phe(4-Cl)]C[Lys(Me)][X20][Aib]NC[Tle]T-NH2; disulfide 5-10): the IC50 in experiment [2] (FACS binding, category) is under 200 nM.
